Measurements taken from patent EP4610269A1, “UROKINASE PLASMINOGEN ACTIVATOR SURFACE RECEPTOR (UPAR) LIGANDS FOR DIAGNOSTIC OR THERAPEUTIC USE” (3B Pharmaceuticals GmbH, priority 2024, dated 2025).
Where two headings read alike, the source gives them in different places. Where a SMILES comes first, the peptide text is derived from it. Bridges are numbered along the chain shown (N, C = ends). [ ]: non-standard residue; d: D form. The star is where a group is joined. DOTA = O=C(O)CN1CCN(CC(=O)O)CCN(CC(=O)*)CCN(CC(=O)O)CC1; NOTA = O=C(O)CN1CCN(CC(=O)O)CCN(CC(=O)*)CC1; Tyr(3-Cl) = N[C@@H](Cc1ccc(O)c(Cl)c1)C(=O)O; Pro(cis-4-F) = O=C(O)[C@@H]1C[C@H](F)CN1; Dopa = N[C@@H](Cc1ccc(O)c(O)c1)C(=O)O; Hyp = O=C(O)[C@@H]1C[C@@H](O)CN1; Pentanoyl(4-Me) = CC(C)CCC(=O)*; Cit = NC(=O)NCCC[C@H](N)C(=O)O; NMeL = CN[C@@H](CC(C)C)C(=O)O; Butoxycarbonyl = CCCCOC(=O)*; Pip = O=C(O)[C@@H]1CCCCN1; Nle = CCCC[C@H](N)C(=O)O; Nva = CCC[C@H](N)C(=O)O; Pentanoyl = CCCCC(=O)*

Key:
[1] = biological target: T1, uPAR-expressing HEC-265 human endometrial adenocarcinoma cells (Homo sapiens, UniProt Q03405); assay: Competitive FACS binding assay; conditions: pIC50 category of FACS binding
T1 construct: Cell surface uPAR-expressing HEC-265 human endometrial adenocarcinoma cells; host or cells: HEC-265
T1 sequence (Q03405 23-335): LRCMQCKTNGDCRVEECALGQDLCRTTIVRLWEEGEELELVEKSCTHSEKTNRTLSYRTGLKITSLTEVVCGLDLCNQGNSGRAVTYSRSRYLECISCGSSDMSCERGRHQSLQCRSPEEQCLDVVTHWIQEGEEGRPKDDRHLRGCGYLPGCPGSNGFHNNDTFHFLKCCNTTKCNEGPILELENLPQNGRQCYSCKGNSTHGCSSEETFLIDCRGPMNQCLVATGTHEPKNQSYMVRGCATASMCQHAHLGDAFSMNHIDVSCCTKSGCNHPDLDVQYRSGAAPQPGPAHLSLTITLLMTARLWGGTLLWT
Method in brief: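 HEC-265 cells incubated 1 h at 4 °C with 10 nM biotinylated uPAR peptide tracer plus increasing test compound, then stained with APC-streptavidin on ice. Median APC fluorescence by flow cytometry; 4PL fit gives pIC50.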

human uPAR (uPAR-Fc) = biological target: T2, human uPAR (uPAR-Fc) (Homo sapiens, UniProt Q03405); assay: Surface plasmon resonance (SPR) assay, single cycle kinetics; assay type: binding; conditions: pKD category for uPAR SPR activity assay, uPAR-Fc on Protein A-Chip, 25°C; for Kd: read-out: pKD CAT (converted)
T2 construct: comprising amino acids Leu23-Arg303 according to UniProt entry Q03405.1; purchased R&D Systems 10378-UK-100
T2 sequence (Q03405 23-303): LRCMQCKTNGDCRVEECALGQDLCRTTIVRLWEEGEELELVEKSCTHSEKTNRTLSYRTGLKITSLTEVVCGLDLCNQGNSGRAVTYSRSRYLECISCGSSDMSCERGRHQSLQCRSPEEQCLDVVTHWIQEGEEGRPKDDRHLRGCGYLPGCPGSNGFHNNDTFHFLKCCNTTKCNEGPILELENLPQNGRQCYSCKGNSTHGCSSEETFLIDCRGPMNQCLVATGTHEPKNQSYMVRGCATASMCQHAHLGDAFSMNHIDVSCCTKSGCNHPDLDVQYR
Method in brief: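 uPAR-Fc (Leu23-Arg303 extracellular domains, human IgG1 Fc) captured on Protein A chip to ~2000 RU; single-cycle kinetics at 25°C in HEPES running buffer pH 7.4 with 0.1% DMSO. KD from double-referenced sensorgrams fitted to 1:1 Langmuir model, reported as pKD.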

Compound | IC50 [1] | Kd (human uPAR (uPAR-Fc)) | Kd (human uPAR (uPAR-Fc); single cycle kinetics) | pIC50 CAT [1] | pKD CAT (human uPAR (uPAR-Fc); single cycle kinetics)
CC[C@H](C)[C@@H]1NC(=O)[C@@H](C)NC(=O)[C@@H]2CCCN2C(=O)[C@H](Cc2ccccc2)NC(=O)[C@H](Cc2ccc(O)c(Cl)c2)NC(=O)[C@H](CCC(N)=O)NC(=O)[C@H](CCCNC(N)=O)NC(=O)[C@@H](NC(=O)CCC(C)C)CSSC[C@@H](C(N)=O)NC(=O)[C@H](CC(C)C)NC1=O [UPAR-188, iHex-[Cys-Cit-Gln-Mcy-Phe-Pro-ala-Ile-Leu-Cys]-NH2] ({Pentanoyl(4-Me)}-C[Cit]Q[Tyr(3-Cl)]FP[dA]ILC-NH2; disulfide 1-10) | ≤ 10 nM | < 1.58 nM | – | – | –
CCCCOC(=O)N[C@H]1CSSC[C@@H](C(N)=O)NC(=O)[C@H](CCC)NC(=O)[C@H]([C@@H](C)CC)NC(=O)[C@@H]2C[C@@H](O)CN2C(=O)[C@@H]2C[C@H](F)CN2C(=O)[C@H](Cc2ccccc2)NC(=O)[C@H](Cc2ccc(O)cc2)NC(=O)[C@H](CCCCNC(=O)CN2CCN(CC(=O)O)CCN(CC(=O)O)CCN(CC(=O)O)CC2)NC(=O)[C@H]([C@@H](C)O)NC1=O [UPAR-237, Butoc-[Cys-Thr-Lys(DOTA)-Tyr-Phe-4Cfp-Hyp-Ile-Nva-Cys]-NH2] (Butoxycarbonyl-CTK(DOTA)YF[Pro(cis-4-F)][Hyp]I[Nva]C-NH2; disulfide 1-10) | ≤ 10 nM | < 1.58 nM | – | – | –
CC[C@H](C)[C@@H]1NC(=O)[C@@H](CCCNC(=N)N)NC(=O)[C@@H]2CCCN2C(=O)[C@H](Cc2ccccc2)NC(=O)[C@H](Cc2ccc(O)cc2)NC(=O)[C@H](CCC(N)=O)NC(=O)[C@H](CCCNC(N)=O)NC(=O)[C@@H](NC(=O)CCC(C)C)CSSC[C@@H](C(N)=O)NC(=O)[C@H](CC(C)C)NC1=O [UPAR-357, iHex-[Cys-Cit-Gln-Tyr-Phe-Pro-arg-Ile-Leu-Cys]-NH2] ({Pentanoyl(4-Me)}-C[Cit]QYFP[dR]ILC-NH2; disulfide 1-10) | ≤ 10 nM | – | 1.58 to 10 nM | – | –
CCCC[C@@H]1NC(=O)[C@H](CCCNC(=N)N)NC(=O)[C@@H](NC(=O)[C@H](CC(C)C)NC(=O)[C@H](CC(=O)O)NC(C)=O)CSSC[C@@H](C(N)=O)NC(=O)[C@H](CC(C)C)NC(=O)[C@H]([C@@H](C)CC)NC(=O)[C@H](C)NC(=O)[C@H]2CCCN2C(=O)[C@H](Cc2ccccc2)NC(=O)[C@H](Cc2ccc(O)cc2)NC1=O [UPAR-218, Ac-Asp-Leu-[Cys-Arg-Nle-Tyr-Phe-pro-Ala-Ile-Leu-Cys]-NH2] (Ac-DLCR[Nle]YF[dP]AILC-NH2; disulfide 3-12) | ≥ 126 nM | > 100 nM | – | – | –
CC[C@H](C)[C@@H]1NC(=O)[C@@H]2C[C@H](F)CN2C(=O)[C@@H]2CCCN2C(=O)[C@H](Cc2ccccc2)NC(=O)[C@H](Cc2ccc(O)cc2)NC(=O)[C@H](CCC(N)=O)NC(=O)[C@H](CCCNC(N)=O)NC(=O)[C@@H](NC(=O)CCC(C)C)CSSC[C@@H](C(N)=O)NC(=O)[C@H](CC(C)C)NC1=O [UPAR-307, iHex-[Cys-Cit-Gln-Tyr-Phe-Pro-4Cfp-Ile-Leu-Cys]-NH2] ({Pentanoyl(4-Me)}-C[Cit]QYFP[Pro(cis-4-F)]ILC-NH2; disulfide 1-10) | ≤ 10 nM | < 1.58 nM | – | – | –
CCCCOC(=O)N[C@H]1CSSC[C@@H](C(N)=O)NC(=O)[C@H](CCC)NC(=O)[C@H]([C@@H](C)CC)NC(=O)[C@@H]2C[C@@H](O)CN2C(=O)[C@@H]2C[C@H](F)CN2C(=O)[C@H](Cc2ccccc2)NC(=O)[C@H](Cc2ccc(O)c(O)c2)NC(=O)[C@H](CCCCNC(=O)CN2CCN(CC(=O)O)CCN(CC(=O)O)CC2)NC(=O)[C@H]([C@@H](C)O)NC1=O [UPAR-250, Butoc-[Cys-Thr-Lys(NOTA)-Dopa-Phe-4Cfp-Hyp-Ile-Nva-Cys]-NH2] (Butoxycarbonyl-CTK(NOTA)[Dopa]F[Pro(cis-4-F)][Hyp]I[Nva]C-NH2; disulfide 1-10) | ≤ 10 nM | < 1.58 nM | – | – | –
CCCCC(=O)N[C@H]1CSSC[C@@H](C(N)=O)NC(=O)[C@H](CCC)NC(=O)[C@H]([C@@H](C)CC)NC(=O)[C@H](CC(=O)O)NC(=O)[C@@H]2CCCN2C(=O)[C@H](Cc2ccccc2)NC(=O)[C@H](Cc2ccc(O)cc2)NC(=O)[C@H](CCC(N)=O)NC(=O)[C@H](CCCNC(=N)N)NC1=O [UPAR-344, Pent-[Cys-Arg-Gln-Tyr-Phe-Pro-Asp-Ile-Nva-Cys]-NH2] (Pentanoyl-CRQYFPDI[Nva]C-NH2; disulfide 1-10) | ≤ 10 nM | < 1.58 nM | – | – | –
Pent-[Cys-Cit-Lys(LuDOTA)-Guf-Phe-Pro-Hyp-Ile-Nva-Cys]-NH2 [UPAR-350] | – | – | – | A (pIC50 values ≥8.0) | A (pKD values ≥ 8.8)
CCC[C@@H]1NC(=O)[C@@H](C)NC(=O)[C@@H]2CCCN2C(=O)[C@H](Cc2ccccc2)NC(=O)[C@H](Cc2ccc(O)cc2)NC(=O)[C@H](CCC(N)=O)NC(=O)[C@H](CCCNC(N)=O)NC(=O)[C@@H](NC(=O)CCC(C)C)CSSC[C@@H](C(N)=O)NC(=O)[C@H](CC(C)C)NC1=O [UPAR-136, iHex-[Cys-Cit-Gln-Tyr-Phe-Pro-ala-Nva-Leu-Cys]-NH2] ({Pentanoyl(4-Me)}-C[Cit]QYFP[dA][Nva]LC-NH2; disulfide 1-10) | ≤ 10 nM | 1.58 to 10 nM | – | – | –

Further lines, results first:

IC50 [1] | Kd (human uPAR (uPAR-Fc)) | Kd (human uPAR (uPAR-Fc); single cycle kinetics) | pIC50 CAT [1] | pKD CAT (human uPAR (uPAR-Fc); single cycle kinetics) | Compound
≥ 126 nM | – | > 100 nM | – | – | CCCCC(=O)N[C@H]1CSSC[C@@H](C(N)=O)NC(=O)[C@H](CC(C)C)N(C)C(=O)[C@H]([C@@H](C)CC)NC(=O)[C@@H]2C[C@@H](O)CN2C(=O)[C@@H]2CCCN2C(=O)[C@H](Cc2ccccc2)NC(=O)[C@H](Cc2ccc(O)cc2)NC(=O)[C@H](CCC(N)=O)NC(=O)[C@H](CCCNC(=N)N)NC1=O [UPAR-480, Pent-[Cys-Arg-Gln-Tyr-Phe-Pro-Hyp-Ile-Nml-Cys]-NH2] (Pentanoyl-CRQYFP[Hyp]I[NMeL]C-NH2; disulfide 1-10)
39.8 to 100 nM | – | 10 to 100 nM | – | – | CCCC[C@@H]1NC(=O)[C@H](CCCNC(=N)N)NC(=O)[C@@H](NC(=O)[C@H](CC(C)C)NC(=O)[C@H](CC(=O)O)NC(C)=O)CSSC[C@@H](C(N)=O)NC(=O)[C@H](CC(C)C)NC(=O)[C@@H](CC(C)C)NC(=O)[C@H](C)NC(=O)[C@@H]2CCCN2C(=O)[C@H](Cc2ccccc2)NC(=O)[C@H](Cc2ccc(O)cc2)NC1=O [UPAR-420, Ac-Asp-Leu-[Cys-Arg-Nle-Tyr-Phe-Pro-Ala-leu-Leu-Cys]-NH2] (Ac-DLCR[Nle]YFPA[dL]LC-NH2; disulfide 3-12)
12.6 to 31.6 nM | – | 1.58 to 10 nM | – | – | CC[C@H](C)[C@@H]1NC(=O)[C@@H]2CCCCN2C(=O)[C@@H]2CCCN2C(=O)[C@H](Cc2ccccc2)NC(=O)[C@H](Cc2ccc(O)cc2)NC(=O)[C@H](CCC(N)=O)NC(=O)[C@H](CCCNC(N)=O)NC(=O)[C@@H](NC(=O)CCC(C)C)CSSC[C@@H](C(N)=O)NC(=O)[C@H](CC(C)C)NC1=O [UPAR-469, iHex-[Cys-Cit-Gln-Tyr-Phe-Pro-Pip-Ile-Leu-Cys]-NH2] ({Pentanoyl(4-Me)}-C[Cit]QYFP[Pip]ILC-NH2; disulfide 1-10)
12.6 to 31.6 nM | – | 1.58 to 10 nM | – | – | CC[C@H](C)[C@@H]1NC(=O)[C@@H](C)NC(=O)[C@@H]2CCCN2C(=O)[C@H](Cc2ccccc2)NC(=O)[C@H](Cc2ccc(O)cc2)NC(=O)[C@H](CCC(N)=O)NC(=O)[C@H](CCCNC(N)=O)NC(=O)[C@@H](NC(=O)CCC(C)C)CSSC[C@@H](C(N)=O)NC(=O)[C@H](C)NC1=O [UPAR-402, iHex-[Cys-Cit-Gln-Tyr-Phe-Pro-ala-Ile-Ala-Cys]-NH2] ({Pentanoyl(4-Me)}-C[Cit]QYFP[dA]IAC-NH2; disulfide 1-10)
≤ 10 nM | – | < 1.58 nM | – | – | CC[C@H](C)[C@@H]1NC(=O)[C@H](CCCNC(=N)N)NC(=O)[C@@H]2CCCN2C(=O)[C@H](Cc2ccccc2)NC(=O)[C@H](Cc2ccc(O)cc2)NC(=O)[C@H](CCCCNC(=O)CN2CCN(CC(=O)O)CCN(CC(=O)O)CCN(CC(=O)O)CC2)NC(=O)[C@H](CCCNC(N)=O)NC(=O)[C@@H](NC(=O)[C@H](CC(C)C)NC(=O)[C@H](CC(=O)O)NC(C)=O)CSSC[C@@H](C(N)=O)NC(=O)[C@H](CC(C)C)NC1=O [UPAR-423, Ac-Asp-Leu-[Cys-Cit-Lys(DOTA)-Tyr-Phe-Pro-Arg-Ile-Leu-Cys]-NH2] (Ac-DLC[Cit]K(DOTA)YFPRILC-NH2; disulfide 3-12)
39.8 to 100 nM | – | 10 to 100 nM | – | – | CCCCC(=O)N[C@H]1CSSC[C@@H](C(N)=O)NC(=O)[C@H](CCC)NC(=O)[C@H]([C@@H](C)CC)NC(=O)[C@@H]2C[C@@H](O)CN2C(=O)[C@@H]2CCCN2C(=O)[C@H](Cc2ccccc2)NC(=O)[C@H](CCCCN)NC(=O)[C@H](CCC(N)=O)NC(=O)[C@H](CCCNC(=N)N)NC1=O [UPAR-442, Pent-[Cys-Arg-Gln-Lys-Phe-Pro-Hyp-Ile-Nva-Cys]-NH2] (Pentanoyl-CRQKFP[Hyp]I[Nva]C-NH2; disulfide 1-10)
≥ 126 nM | – | 10 to 100 nM | – | – | CCCCC(=O)N[C@H]1CSSC[C@@H](C(N)=O)NC(=O)[C@H](CCC)NC(=O)[C@H](CCCCN)NC(=O)[C@@H]2C[C@@H](O)CN2C(=O)[C@@H]2CCCN2C(=O)[C@H](Cc2ccccc2)NC(=O)[C@H](Cc2ccc(O)cc2)NC(=O)[C@H](CCC(N)=O)NC(=O)[C@H](CCCNC(=N)N)NC1=O [UPAR-385, Pent-[Cys-Arg-Gln-Tyr-Phe-Pro-Hyp-Lys-Nva-Cys]-NH2] (Pentanoyl-CRQYFP[Hyp]K[Nva]C-NH2; disulfide 1-10)
